Experimental data: patent US10865211B2 (ENANTA PHARMACEUTICALS, INC, priority 2018, dated 2020)

What was measured:
[1] = Compound induced cellular toxicity in HepG2 cells (ATPlite); format: cell-based; settings: human, three days, ATPlite 1 Step, concentration reducing total ATP levels by 50% relative to no drug controls
Method: At day 3, post seeding cells are treated with ATPlite 1 Step according to the manufacturer's instructions.

2.2.15 cells = test: Antiviral activity in 2.2.15 cells: reduction of viral product accumulation (qPCR, HBsAg/HBeAg ELISA); format: cell-based, HBV; settings: Hepatitis B virus, 120 h, day 5 post treatment, concentration reducing viral product accumulation in cell lysates or supernatants by 50% relative to no drug controls
Method: 2.2.15 cells are passaged upon attaining confluency in DMEM/F12 media in the presence of 10% FBS, Penn/Strep, and 250 ug/mL G418. Novel compounds are 5 fold serially diluted in DMSO and added to 96 well plates containing 35,000 cells/well at a 1:200 dilution so that the final concentration of DMSO is 0.5%. On day 5, post treatment cell lysates and supernatants are harvested for analysis.
Cells are lysed using Agilent Sidestep Lysis buffer, diluted 1:100 and quantified via quantitative real time PCR. Commercially available ELISA kits are used to quantitate the viral proteins HBsAg (Alpco) or HBeAg (US Biological) by following the manufacturer's recommended protocol after diluting samples to match the linear range of their respective assays. Irrespective of readout, compound concentrations that reduce viral product accumulation in the cell lysates or supernatants by 50% relative to no drug controls (EC50) are reported; EC50 ranges are as follows: A<0.1 μM; B 0.1-1 μM; C>1 μM.

| Compound | CC50 at 3 days [1] | EC50 (2.2.15 cells) |
| --- | --- | --- |
| CC(C)(C)[C@@H]1Cc2c(oc3c(-c4cnco4)cccc23)-c2cc(=O)c(C(=O)O)cn21 [Example 27, (S)-6-(tert-butyl)-11-(oxazol-5-yl)-2-oxo-6,7-dihydro-2H-benzofuro[2,3-a]quinolizine-3-carboxylic acid] | 10 to 25 µM | < 100 nM |
| Cn1nccc1-c1cccc2c3c(oc12)-c1cc(=O)c(C(=O)O)cn1[C@H](C(C)(C)C)C3 [Example 28, (S)-6-(tert-butyl)-11-(1-methyl-1H-pyrazol-5-yl)-2-oxo-6,7-dihydro-2H-benzofuro[2,3-a]quinolizine-3-carboxylic acid] | > 25 µM | < 100 nM |
| Cn1cc(-c2cccc3c4c(oc23)-c2cc(=O)c(C(=O)O)cn2[C@H](C(C)(C)C)C4)cn1 [Example 29, (S)-6-(tert-butyl)-11-(1-methyl-1H-pyrazol-4-yl)-2-oxo-6,7-dihydro-2H-benzofuro[2,3-a]quinolizine-3-carboxylic acid] | 10 to 25 µM | < 100 nM |
| Cn1ccc(-c2cccc3c4c(oc23)-c2cc(=O)c(C(=O)O)cn2[C@H](C(C)(C)C)C4)n1 [Example 30, (S)-6-(tert-butyl)-11-(1-methyl-1H-pyrazol-3-yl)-2-oxo-6,7-dihydro-2H-benzofuro[2,3-a]quinolizine-3-carboxylic acid] | 10 to 25 µM | < 100 nM |
| CC(C)(C)[C@@H]1Cc2c(oc3c(C#N)cccc23)-c2cc(=O)c(C(=O)O)cn21 [Example 31, (S)-6-(tert-butyl)-11-cyano-2-oxo-6,7-dihydro-2H-benzofuro[2,3-a]quinolizine-3-carboxylic acid] | > 25 µM | < 100 nM |
| CC(C)(C)[C@@H]1Cc2c(oc3c(-c4cn[nH]c4)cccc23)-c2cc(=O)c(C(=O)O)cn21 [Example 32, (S)-6-(tert-butyl)-2-oxo-11-(1H-pyrazol-4-yl)-6,7-dihydro-2H-benzofuro[2,3-a]quinolizine-3-carboxylic acid] | > 25 µM | < 100 nM |
| CC(C)(C)[C@@H]1Cc2c(oc3c(-c4ccn[nH]4)cccc23)-c2cc(=O)c(C(=O)O)cn21 [Example 33, (S)-6-(tert-butyl)-2-oxo-11-(1H-pyrazol-5-yl)-6,7-dihydro-2H-benzofuro[2,3-a]quinolizine-3-carboxylicacid] | > 25 µM | < 100 nM |
| CC(C)(C)[C@@H]1Cc2c(oc3c(-c4ccco4)cccc23)-c2cc(=O)c(C(=O)O)cn21 [Example 34, (S)-6-(tert-butyl)-11-(furan-2-yl)-2-oxo-6,7-dihydro-2H-benzofuro[2,3-a]quinolizine-3-carboxylic acid] | 10 to 25 µM | < 100 nM |
| CC(C)(C)[C@@H]1Cc2c(oc3c(-c4ccsc4)cccc23)-c2cc(=O)c(C(=O)O)cn21 [Example 35, (S)-6-(tert-butyl)-2-oxo-11-(thiophen-3-yl)-6,7-dihydro-2H-benzofuro[2,3-a]quinolizine-3-carboxylic acid] | > 25 µM | < 100 nM |
| CC(C)(C)[C@@H]1Cc2c(oc3c(N4CCC(F)(F)C4)cccc23)-c2cc(=O)c(C(=O)O)cn21 [Example 36, (S)-6-(tert-butyl)-11-(3,3-difluoropyrrolidin-1-yl)-2-oxo-6,7-dihydro-2H-benzofuro[2,3-a]quinolizine-3-carboxylic acid] | > 25 µM | < 100 nM |
| CC(C)(C)[C@@H]1Cc2c(oc3c(-c4cccs4)cccc23)-c2cc(=O)c(C(=O)O)cn21 [Example 37, (S)-6-(tert-butyl)-2-oxo-11-(thiophen-2-yl)-6,7-dihydro-2H-benzofuro[2,3-a]quinolizine-3-carboxylic acid] | > 25 µM | < 100 nM |
| CC(C)(C)[C@@H]1Cc2c(oc3c(-c4cnsc4)cccc23)-c2cc(=O)c(C(=O)O)cn21 [Example 38, (S)-6-(tert-butyl)-11-(isothiazol-4-yl)-2-oxo-6,7-dihydro-2H-benzofuro[2,3-a]quinolizine-3-carboxylic acid] | 10 to 25 µM | < 100 nM |
| CC(C)(C)[C@@H]1Cc2c(oc3c(-c4cscn4)cccc23)-c2cc(=O)c(C(=O)O)cn21 [Example 39, (S)-6-(tert-butyl)-2-oxo-11-(thiazol-4-yl)-6,7-dihydro-2H-benzofuro[2,3-a]quinolizine-3-carboxylic acid] | 10 to 25 µM | < 100 nM |
| CC(C)(C)[C@@H]1Cc2c(oc3c(-c4nccs4)cccc23)-c2cc(=O)c(C(=O)O)cn21 [Example 41, (S)-6-(tert-butyl)-2-oxo-11-(thiazol-2-yl)-6,7-dihydro-2H-benzofuro[2,3-a]quinolizine-3-carboxylic acid] | 10 to 25 µM | < 100 nM |
| CC(C)(C)[C@@H]1Cc2c(oc3c(-n4cccn4)cccc23)-c2cc(=O)c(C(=O)O)cn21 [Example 42, (S)-6-(tert-butyl)-2-oxo-11-(1H-pyrazol-1-yl)-6,7-dihydro-2H-benzofuro[2,3-a]quinolizine-3-carboxylic acid] | > 25 µM | < 100 nM |
| CC(C)(C)[C@@H]1Cc2c(oc3c(C4CC4)cccc23)-c2cc(=O)c(C(=O)O)cn21 [Example 43, (S)-6-(tert-butyl)-11-cyclopropyl-2-oxo-6,7-dihydro-2H-benzofuro[2,3-a]quinolizine-3-carboxylic acid] | 10 to 25 µM | < 100 nM |
| COc1cccc2c3c(oc12)-c1cc(=O)c(C(=O)O)cn1[C@H](C(C)(C)C)C3 [Example 45, (S)-6-(tert-butyl)-11-methoxy-2-oxo-6,7-dihydro-2H-benzofuro[2,3-a]quinolizine-3-carboxylic acid] | > 25 µM | < 100 nM |
| CC(C)(C)[C@@H]1Cc2c(oc3c(OC4COC4)cccc23)-c2cc(=O)c(C(=O)O)cn21 [Example 46, (S)-6-(tert-butyl)-11-(oxetan-3-yloxy)-2-oxo-6,7-dihydro-2H-benzofuro[2,3-a]quinolizine-3-carboxylic acid] | > 25 µM | < 100 nM |
| CC(C)(C)[C@@H]1Cc2c(oc3c(OC4CC4)cccc23)-c2cc(=O)c(C(=O)O)cn21 [Example 47, (S)-6-(tert-butyl)-11-cyclopropoxy-2-oxo-6,7-dihydro-2H-benzofuro[2,3-a]quinolizine-3-carboxylic acid] | 10 to 25 µM | < 100 nM |
| CC(C)(C)[C@@H]1Cc2c(oc3c(-c4ccoc4)cccc23)-c2c(F)c(=O)c(C(=O)O)cn21 [Example 48, (S)-6-(tert-butyl)-1-fluoro-11-(furan-3-yl)-2-oxo-6,7-dihydro-2H-benzofuro[2,3-a]quinolizine-3-carboxylic acid] | > 25 µM | < 100 nM |
| CC(C)(C)[C@@H]1Cc2c(oc3c(-c4ccco4)cccc23)-c2c(F)c(=O)c(C(=O)O)cn21 [Example 49, (S)-6-(tert-butyl)-1-fluoro-11-(furan-2-yl)-2-oxo-6,7-dihydro-2H-benzofuro[2,3-a]quinolizine-3-carboxylic acid] | > 25 µM | < 100 nM |
| CC(C)(C)[C@@H]1Cc2c(oc3c(-c4cn[nH]c4)cccc23)-c2c(F)c(=O)c(C(=O)O)cn21 [Example 50, (S)-6-(tert-butyl)-1-fluoro-2-oxo-11-(1H-pyrazol-4-yl)-6,7-dihydro-2H-benzofuro[2,3-a]quinolizine-3-carboxylic acid] | > 25 µM | < 100 nM |
